Reference: patent publication US20250381307A1, “RETRO-AAV AND USE IN TREATING NEURODEGENERATIVE DISEASES” (priority 2023, published 2025)

Key:
[1] = molecular target: hM3Dq (Homo sapiens, UniProt P20309, A239G/Y149C); assay: Rotation behavior and nigral c-Fos in mice after unilateral nigral AAV8R12-G88P3-HA-hM3Dq and CNO; assay type: in vivo, C57BL/6J mice; set-up: host or cells: AAV8R12-transduced neurons (striatal D1-MSNs, some SNr neurons) of mice and macaques; details: for rotation behavior (FIG. 6C): control vector AAV8R12-G88P3-EYFP, n=5
Sequence of hM3Dq (P20309 whole entry Y149C/A239G): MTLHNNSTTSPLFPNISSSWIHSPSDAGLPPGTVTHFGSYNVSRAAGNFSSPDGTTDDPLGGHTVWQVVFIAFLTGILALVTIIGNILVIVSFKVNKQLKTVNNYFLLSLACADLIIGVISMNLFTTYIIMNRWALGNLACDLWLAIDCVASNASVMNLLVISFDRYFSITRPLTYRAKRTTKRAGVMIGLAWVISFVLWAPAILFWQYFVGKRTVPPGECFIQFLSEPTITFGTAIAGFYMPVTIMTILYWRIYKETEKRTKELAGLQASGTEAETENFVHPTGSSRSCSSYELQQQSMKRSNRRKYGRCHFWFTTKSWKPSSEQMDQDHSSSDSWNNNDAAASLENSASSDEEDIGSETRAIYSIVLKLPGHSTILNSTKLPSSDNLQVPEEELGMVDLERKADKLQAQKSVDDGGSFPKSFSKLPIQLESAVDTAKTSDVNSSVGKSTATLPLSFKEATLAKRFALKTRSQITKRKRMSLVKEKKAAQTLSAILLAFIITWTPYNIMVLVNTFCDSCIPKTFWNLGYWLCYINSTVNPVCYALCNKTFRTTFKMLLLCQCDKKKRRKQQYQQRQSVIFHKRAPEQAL
Description: (§1) Mice were anesthetized with sodium pentobarbital (Nembutal; 80 mg/kg, i.p.), and then placed into a stereotaxic device (KOPF). Eye cream was applied on both corneas to avoid dehydration. The skull above the targeted areas was thinned with a dental drill and carefully removed. Injections were conducted with a 10 μL syringe connected to a 33-Gauge needle (Neuros; Hamilton), using a microsyringe pump (Legato 130, KD Scientific). A total volume of 200 nL virus was injected into the SNr at a speed of 20 nL/min. The coordinates for the SNr were 3.4 mm posterior, 1.3 mm lateral, 4.8 mm ventral to the bregma.
(§2) Mice that were used in the behavioral experiments were then implanted with guide cannulas (KOPF) unilaterally aiming at the dorsomedial striatum (0.5 mm anterior, 1.5 mm lateral, 3.5 mm ventral to the bregma). The cannulas were fixed to the skull with dental cement. Stainless steel obturators were inserted into the guide cannulas and were replaced every other day to maintain the patency until infusions were made. Mice were allowed to recover from the surgery for at least 3 weeks before further studies.
(§3) Mice were individually handled for 10-20 seconds per day for at least 5 days to habituate them to the experimenter. The open field test was conducted in a test apparatus (50 cm×50 cm×50 cm) with an HD digital camera (Sony) positioned above the arena. On day one, mice were habituated to the apparatus for 10 minutes. On day 2, mice were administrated saline (0.1 mL i.p. or 200 nL intracranially [i.e.] through the guide cannulas). On day 3, mice were administrated with Clozapine-N-oxide (CNO, Hello Bio, HB1807; 0.3 mg/kg i.p. or 200 nL at 100 μM i.e.). All behavioral tests were conducted 30 minutes after injection. During the test, mice were allowed to freely explore the apparatus for 10 minutes. The behavioral data were analyzed with ANY-maze software (Stoelting Co.).

[2] = molecular target: T1, rM3Ds (Rattus norvegicus, UniProt P08483, A177S/A238G/A489L/DEL261-437/DEL441-478/E258S/I253V/I483M/INS256[…]/K178L/K182A/K255R/K484R/K486H/L173F/L482A/M480V/R171S/R176Q/R179M/S481M/T174R/T181R/T257A/Y148C); assay: In vivo electrophysiological recording in caudate/putamen of MPP+ lesioned macaques; set-up: rM3Ds; 2A-EYFP (C); host or cells: AAV8R12-transduced striatal D1-MSNs of mice and cynomolgus macaques (in vivo and acute slices)
T1 sequence (P08483 with tags, fused parts or gaps Y148C/R171S/L173F/T174R/R176Q/A177S/K178L/R179M/T181R/K182A/A238G/I253V/K255R/INS256[…]/T257A/E258S/DEL261-437/DEL441-478/M480V/S481M/L482A/I483M/K484R/K486H/A489L): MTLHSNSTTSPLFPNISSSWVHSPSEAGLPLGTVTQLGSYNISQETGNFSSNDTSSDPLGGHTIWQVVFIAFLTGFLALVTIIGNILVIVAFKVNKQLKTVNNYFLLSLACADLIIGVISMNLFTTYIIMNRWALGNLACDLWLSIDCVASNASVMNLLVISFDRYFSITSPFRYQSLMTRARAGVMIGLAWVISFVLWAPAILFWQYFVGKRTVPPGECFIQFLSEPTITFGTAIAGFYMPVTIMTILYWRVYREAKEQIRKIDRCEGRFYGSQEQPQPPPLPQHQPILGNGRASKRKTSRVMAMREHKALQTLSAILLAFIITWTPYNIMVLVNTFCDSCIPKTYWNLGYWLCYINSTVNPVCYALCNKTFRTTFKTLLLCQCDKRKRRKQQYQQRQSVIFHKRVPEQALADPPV
Description: Electrophysiological recording was performed through a recording chamber while the monkey was anesthetized. Neural responses were recorded by a 16-channel linear probe (Plexon Inc, Uprobe) driven by a mechanical microdrive (Alpha Omega, FlexMT). Signals were passed through a head stage (Plexon Inc, HST/16V-G20 LN) and then split and filtered between 300 Hz and 5 kHz to identify spiking activity with an amplifier system (Plexon Inc, OmniPlex). Detected spikes were then sorted by commercially available software (Plexon Inc, Offline Sorter) for further analysis. To quantify the effect of CNO/DCZ injection, neural activity was recorded for 60 minutes following CNO/DCZ injection. The response time-course for each channel was obtained by counting the spikes within every 10-minute window and then normalizing to the maximal.
To determine the effect of CNO/DCZ injection on the direction of signal change, we performed Pearson correlation between neural responses and time using the ‘corr’ function in Matlab, which generates the correlation coefficient ‘r’ and significant level ‘p’. A neuron was considered to have “Increased” activity when r>0 and p<0.05; and considered to have “Decreased” activity when r<0 and p<0.05. Otherwise, neurons were considered to be “Unchanged” in their neural activities. The responses of all increased neurons were then averaged after being normalized by the maximal response (Crowe et al., 2014; Dai and Wang, 2018; Hirokawa et al., 2019) following CNO/DCZ injection, and then plotted as a function of time to generate the normalized population response.

[3] = molecular target: T2, rM3Ds (Rattus norvegicus, UniProt P08483, A177S/A238G/A489L/DEL261-437/DEL441-478/E258S/I253V/I483M/INS256[…]/K178L/K182A/K255R/K484R/K486H/L173F/L482A/M480V/R171S/R176Q/R179M/S481M/T174R/T181R/T257A/Y148C); assay: Rotation behavior and nigral c-Fos in mice after unilateral nigral AAV8R12-G88P7-rM3Ds-2A-EYFP and CNO; assay type: in vivo; details: for contraversive rotations (FIG. 7A): AAV8R12-G88P7-rM3Ds-2A-EYFP, n=8; for rotation behavior (FIG. 7C): control vector AAV8R12-G88P7-EYFP, n=5
T2 construct: rM3Ds; 2A-EYFP (C); host or cells: AAV8R12-transduced striatal D1-MSNs of mice and cynomolgus macaques (in vivo and acute slices)
Description: as §1, §2, §3

[4] = Locomotion test in naive macaques without viral injection; assay type: in vivo; details: naive macaques, n=3, not significant

For `C[N+]1([O-])CCN(C2=Nc3cc(Cl)ccc3Nc3ccccc32)CC1` [CNO, clozapine N-oxide], the “rotations (FIG. 6A; ipsiversive rotations induced)” value ([1]; CNO i.p., AAV8R12-G88P3-HA-hM3Dq, n=8 mice, mean±SEM, saline 45.25±4.128) was 87.84±4.666, the “rotation behavior (FIG. 6C)” value ([1]; CNO i.p., saline 47.08±10.5) was 44.72±10.89 and the “rotations (FIG. 6A; contraversive rotations induced)” value ([1]; CNO intracranial into dorsomedial striatum, AAV8R12-G88P3-HA-hM3Dq, n=8, saline 49.63±5.879) was 15.08±3.435. The “nigral c-Fos+ cells” value ([1]; CNO intracranial, hM3Dq) was “No significant changes in the number of nigral c-Fos+ cells”, the “rotation behavior (FIG. 6C)” value ([1]; CNO intracranial, saline 54.22±8.766) was 61.39±5.774 and the “c-Fos+ cells in the right SNr” value ([1]; CNO intraperitoneal, hM3Dq) was “significant increase in c-Fos+ cells”. For the same compound, the “caudate/putamen cells activated (FIG. 15G)” value ([2]; CNO 36 cells, DCZ 31 cells, saline 17.9%) was 52.8%, the “caudate/putamen cells inactivated (FIG. 15G)” value ([2]; saline 33.4%) was 13.9% and the “caudate/putamen cells unchanged (FIG. 15G)” value ([2]; saline 48.7%) was 33.3%. The “rotations 12 months after viral infection” value ([3]; CNO i.p., 12 months after nigral AAV8R12-G88P7-rM3Ds-2A-EYFP) was “consistently elevated contraversive rotations”, the “contraversive rotations (FIG. 7A)” value ([3]; CNO i.p., saline 45.95±4.972) was 80.05±5.168 and the “rotation behavior (FIG. 7C)” value ([3]; CNO i.p., saline 48.68±7.203) was 46.88±7.497. For the same compound, the “contraversive rotations (FIG. 7A)” value ([3]; CNO intracranial, saline 58.31±4.742) was 80.77±4.187, the “rotation behavior (FIG. 7C)” value ([3]; CNO intracranial, saline 41.11±12.73) was 34.55±7.536 and the “c-Fos+ cells in the SNr” value ([3]; CNO intraperitoneal, rM3Ds) was “didn't increase the number of c-Fos+ cells in the SNr”. For the same compound, the “contraversive and ipsiversive rotation (FIG. 11C)” value ([4]; saline 0.767±0.4296) was 0.8384±0.4152, the “speed of contraversive rotations (FIG. 11G)” value ([4]; saline 39.07±5.889) was 39.63±7.092 and the “speed of ipsiversive rotations (FIG. 11H)” value ([4]; saline 41.49±3.96) was 42.79±4.705. For the same compound, the “total distance (FIG. 11F)” value ([4]; saline 53.12±15.3) was 59.48±18.65, the “time spending in the higher portion of the observing cages (FIG. 11D)” value ([4]; saline 55.73±2.64) was 60.43±4.542 and the “immobile time (FIG. 11E)” value ([4]; saline 149.9±21.61) was 149.8±22.65.
